Measurements as given in paper PMC9905731, “PIN1 and PIN4 inhibition via parvulin impeders Juglone, PiB, ATRA, 6,7,4′-THIF, KPT6566, and EGCG thwarted hepatitis B virus replication” (Frontiers in Microbiology, 2023).

What follows are compounds tested on HBV-infected HepG2-hNTCP-C9 cells (assay: HBV replication in HBV-infected HepG2-hNTCP-C9 cells). Conditions: 9 days; 20 μM Juglone or PiB, 30 μM ATRA, 6,7,4′-THIF or KPT6566, 40 μM EGCG; vs solvent.
Format: cell-based, hepatitis B virus
Protocol: Figure 9 PIN1 and PIN4 Inhibition via Juglone, PiB, ATRA, 6,7,4′-THIF, KPT6566, and EGCG abrogate HBV replication in HBV-infected cells. […] HepG2-hNTCP-C9 cells were seeded and infected, as described previously, in the “Material and Methods” section. Infected cells (lanes 2–3) were treated with solvent (lane 2) or 20 μM Juglone, 20 μM PiB, 30 μM ATRA, 30 μM 6,7,4′-THIF, 30 μM KPT6566, 40 μM EGCG (lane 3) for 9 days, and lysates were subjected to SDS-PAGE and immunoblotting, NAGE, Northern blotting, and Southern blotting. The shown data are representation from three independent experiments. The statistical significance was determined by using Student’s t-test. *p < 0.05, **p < 0.005, ***p < 0.0005 relative to the corresponding control.
HBV inoculum was harvested from HepAD38 cells for infection experiments. HepAD38 cells in DMEM plus 10% FBS, 1% PS, G418 (0.5 mg/ml), insulin (5 μg/ml), and hydrocortisone hemisuccinate (50 μM) were grown, and on every third day after passage of day 10th (till 31st), the media supernatants were collected and concentrated via 20 to 60% sucrose gradient by ultra-centrifugation (Beckman Coulter Optima L-90 K) method, as described previously ([Saeed et al., 2019], [2021]). The HBV DNAs from the pelleted precipitant were examined by Southern blotting. […] The following day, the cell media was refreshed after PBS washing and maintained in 2.5% DMSO containing media. On the 9th day post-infection, the cellular lysates were prepared and subjected to SDS-PAGE and immunoblotting, core particle immunoblotting, and Southern blot analysis. At 5 days post-infection, HBV RNA levels were determined by Northern blotting.
Juglone (Sigma Aldrich, AG17724), PiB (Calbiochem, CAS 64005–90-9), ATRA (Sigma-Aldrich, R2625), 6,7,4′-THIF (Chem Faces, CFN90796), KPT6566 (ProbeChem, PC-61182), or EGCG (Sigma Aldrich, 989–51-5) was treated to Huh7, HepAD38, HepG2, HepG2.2.15, and HepG2-hNTCP-C9 cells. Prior to the conduct of experiments, the cytotoxic effects of Juglone, PiB, ATRA, 6,7,4′-THIF, KPT6566, or EGCG were examined via MTT assay (3-[4,5-dimethylththiazol-2-yl]-2,5-diphenyltetrazolium bromide), as described previously ([Bichko et al., 1985]; [Piracha et al., 2018], [2020]; [Saeed et al., 2019], [2021]). Briefly, selected HCC cell lines (HepG2, Huh7, HepG2.2.15, and HepAD38) in 6 cm plates were treated with Juglone (20 μM), PiB (20 μM), ATRA (30 μM), 6,7,4′-THIF (30 μM), KPT6566 (30 μM), or EGCG (40 μM) at transfection or at the time of TC removal from HepAD38 cells. Juglone (20 μM in ethanol, Sigma Aldrich, AG17724) was treated to 1.3 mer HBV-WT transfected Huh7 cells (Figure 3A) or TC-depleted HepAD38 cells (Figure 3B) or to 1.3 mer HBV-WT transfected HepG2 (Figure 3C) or HepG2.2.15 (Figure 3D) cells for 72 h. PiB (20 μM in DMSO, Calbiochem, CAS 64005-90-9) was treated for 72 h to 1.3 mer HBV-WT transfected Huh7 cells (Figure 4A) or TC-depleted HepAD38 cells (Figure 4B) or to 1.3 mer HBV-WT transfected HepG2 cells (Figure 4C) or HepG2.2.15 (Figure 4D) cells. To examine the effects on HBV replication, ATRA (30 μM in DMSO, R2625 Sigma-Aldrich) was treated for 72 h to 1.3 mer HBV-WT transfected Huh7 cells (Figure 5A) or TC-depleted HepAD38 cells (Figure 5) or to 1.3 mer HBV-WT transfected HepG2 cells (Figure 5C) or HBV replicating HepG2.2.15 (Figure 5D) cells. 6,7,4′-THIF (30 μM in DMSO, CFN90796 Chem Faces) was treated for 72 h to 1.3 mer HBV-WT transfected Huh7 cells (Figure 6A) or TC-depleted HepAD38 cells (Figure 6B) or to 1.3 mer HBV-WT transfected HepG2 cells (Figure 6C) or HBV replicating HepG2.2.15 (Figure 6D) cells. KPT-6566 (30 μM in DMSO, PC-61182 ProbeChem) was treated for 72 h to 1.3 mer HBV-WT transfected Huh7 cells (Figure 7A) or TC-depleted HepAD38 cells (Figure 7B) or to 1.3 mer HBV-WT transfected HepG2 cells (Figure 7C) or HBV replicating HepG2.2.15 (Figure 7D) cells. […]

Compound	HBV replication in infected cells (HBc, HBV transcripts, core particles, HBV DNA)
O=c1c(-c2ccc(O)cc2)coc2cc(O)c(O)cc12 [6,7,4′-THIF, 6,7-dihydroxy-3-(4-hydroxyphenyl)-4H-chromen-4-one]	restricted HBV replication
CC1=C(/C=C/C(C)=C/C=C/C(C)=C/C(=O)O)C(C)(C)CCC1 [ATRA, All-trans-retinoic acid]	restricted HBV replication
O=C(O[C@@H]1Cc2c(O)cc(O)cc2O[C@@H]1c1cc(O)c(O)c(O)c1)c1cc(O)c(O)c(O)c1 [EGCG, Epigallocatechin gallate]	restricted HBV replication
O=C1C=CC(=O)c2c(O)cccc21 [Juglone, 5-hydroxyl-1,4-naphthoquinone]	restricted HBV replication
CC(C)(C)c1ccc(S(=O)(=O)N=C2C=C(SCC(=O)O)C(=O)c3ccccc32)cc1 [KPT6566, 2-[[4-[[[4-(1,1-dimethylethyl)phenyl]sulfonyl]imino]-1,4-dihydro-1-oxo-2-naphthalenyl]thio] acetic acid]	restricted HBV replication
CCOC(=O)CN1C(=O)c2ccc3c4c(ccc(c24)C1=O)C(=O)N(CC(=O)OCC)C3=O [PiB, 1,3,6,8-tetrahydro-1,3,6,8-tetraoxo-benzo [lmn][3,8] phenanthroline-2,7-diacetic acid, 2,7-diethyl ester]	restricted HBV replication
